How the values were obtained:
[1] = Tested for its activity to inhibit the binding of [125I]gastrin to gastric glands (gastrin) in guinea pig
[2] = Tested for its activity to inhibit the binding of [125I]CCK-33 to Cholecystokinin type B receptor in guinea pig brain
[3] = Tested for its activity to inhibit the binding of [125I]gastrin to gastric glands (gastrin) in guinea pig; remark: listed apart in the source

| IC50 [1] [µM] | IC50 [2] [µM] | IC50 [3] [µM] | Compound |
| --- | --- | --- | --- |
| > 100 | > 100 | – | Cn1c(C(=O)Nc2cc3c4ccccc4nc-3c[nH]2)cc2ccccc21 [1-Methyl-1H-indole-2-carboxylic acid (9H-beta-carbolin-3-yl)-amide] |
| – | 34 | 14 | O=C(Cc1ccccc1)Nc1cc2c3ccccc3nc-2c[nH]1 [N-(9H-beta-Carbolin-3-yl)-2-phenyl-acetamide] |
| – | 223 | > 100 | O=C(Nc1cc2c3ccccc3nc-2c[nH]1)c1ccccc1 [N-(9H-beta-Carbolin-3-yl)-benzamide] |

— BindingDB's records for doi:10.1016/S0960-894X(00)80682-4 (1993)
